From the METLIN SMRT retention time set (Domingo-Almenara et al. 2019)

Assay: gradient 5% acetonitrile 3 min, to 50% in 2 min, to 85% in 15 min, held 3 min, 100 µL/min
Details: column: Zorbax Extend-C18 2.1 x 50 mm; eluents: water / acetonitrile, 0.1% formic acid
Outline: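 Standards, all pure, were combined into mixtures of ~100 molecules and run at 100 μL/min on a Zorbax Extend-C18 column (2.1 × 50 mm, 1.8 μm) with water and acetonitrile, each containing 0.1% formic acid. A coupled quadrupole time-of-flight mass spectrometer operated in positive and negative ionization mode. Retention time values come from computationally picked adduct peaks, each inspected manually.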
Work on `CCCN(CCC)CCCNC(=O)C1CCCN(c2ncc(-c3ccccc3)cn2)C1` (centres undefined) yielded an RP-LC retention time of 719 s.
For `Cc1nc2cccnc2n1CC1CCCN(S(=O)(=O)c2ccc(C(C)C)cc2)C1` (centres undefined), the RP-LC retention time was 817 s.
For `CCCCN(CC)S(=O)(=O)c1ccc(C(=O)Nc2nc3c(s2)Cc2ccccc2-3)cc1`, the RP-LC retention time was 1230 s.
Work on `Cc1ccc(Cl)cc1NC(=O)CSc1nc2ncccc2c(=O)n1CC1CCCO1` (centres undefined) yielded an RP-LC retention time of 794 s.
In the case of `O=C(NCc1ccco1)N1CCN(c2nc3ccccc3n(Cc3ccccc3)c2=O)CC1`, the RP-LC retention time is reported as 967 s.
`COc1ccc(-c2nc(-c3cccc(-c4ccnn4C)c3)no2)cc1` showed an RP-LC retention time of 1120 s.
Work on `Cc1ccc(-c2ccc(N3CCCC(C(=O)N4CCC(C(N)=O)CC4)C3)nn2)cc1C` (centres undefined) yielded an RP-LC retention time of 622 s.
In the case of `Cc1ccccc1Cn1cc(-c2ccncc2)cc1C(=O)Nc1ccc2c(c1)OCO2`, the RP-LC retention time is reported as 749 s.
`Cc1noc(-c2nn(C)c3c2CN(C(=O)CC2CCCC2)CC3)n1` gave an RP-LC retention time of 759 s.
`Cc1oc(-c2[nH]ncc2C(=O)N2CCCC2)cc1S(=O)(=O)N1CCC(C)CC1` showed an RP-LC retention time of 746 s.
`CCN(CC)CCCn1c(C)cc2c(c1=O)C(c1ccc(Cl)cc1)C(C#N)=C(N)O2` (centres undefined) gave an RP-LC retention time of 658 s.
With `CC(=O)NCc1ccc(-c2noc(Cc3c(F)cccc3Cl)n2)s1` the RP-LC retention time was 834 s.
`O=C(Nc1ccccc1)Nc1c(-c2ccc(F)cc2)nc2ccccn12` showed an RP-LC retention time of 662 s.
In the case of `Cc1ccc2c(Nc3ccc(Cl)cc3)c(C(=O)N3CCOCC3)cnc2n1`, the RP-LC retention time is reported as 608 s.
Compound `CCN(CC)CCNC(=O)c1cn(C)nc1S(=O)(=O)N1CCN(c2cc(Cl)ccc2C)CC1` has an RP-LC retention time of 756 s.
In the case of `CCNS(=O)(=O)c1cccnc1Nc1cccc(Cl)c1`, the RP-LC retention time is reported as 1030 s.
Compound `Cc1cc(NC(=O)c2ccccc2)c(Cl)cc1N` has an RP-LC retention time of 797 s.
Work on `O=C(NCc1cccc(F)c1)N1CCC(n2c(-c3ccco3)nc3cccnc32)C1` (centres undefined) yielded an RP-LC retention time of 774 s.
For `CCS(=O)(=O)c1nc2ccc(NS(=O)(=O)c3c(C)cc(C)cc3C)cc2s1`, the RP-LC retention time was 958 s.
Work on `CC(C)n1nnc2cc(S(=O)(=O)N3CCCC(C(=O)N(C)Cc4ccccc4)C3)ccc21` (centres undefined) yielded an RP-LC retention time of 940 s.
`Cc1cccc(NS(=O)(=O)c2c(C)sc(C)c2-c2n[nH]c(C)c2C)c1` gave an RP-LC retention time of 1040 s.
`COc1ccc(Cl)cc1NC(=O)Cc1csc2nc(-c3ccc(C)c(C)c3)cn12` gave an RP-LC retention time of 985 s.
For `Cn1nc(C(F)(F)F)cc1C(=O)N1CCCC1c1ccccc1Cl` (centres undefined), the RP-LC retention time was 1030 s.
`Cc1cc(C)cc(NC(=O)Cc2c(C(=O)O)c(C)cn2C)c1` showed an RP-LC retention time of 739 s.
Compound `O=C(NCc1cccnc1)C1CCCN(c2ncnc3c2oc2ccccc23)C1` (centres undefined) has an RP-LC retention time of 576 s.
In the case of `CS(=O)(=O)Nc1ccc(-c2noc(-c3cnccn3)n2)cc1`, the RP-LC retention time is reported as 686 s.
With `O=C(Cn1cccc1-c1nc(-c2ccc(F)cc2)no1)Nc1ccc2c(c1)OCCO2` the RP-LC retention time was 944 s.
`O=C1COc2ccc(-c3csc(NC(=O)C4CCCO4)n3)cc2N1` (centres undefined) showed an RP-LC retention time of 715 s.
Work on `COc1ccc(OCC(=O)N2CCN(c3cc(C)n4c(C)nnc4n3)CC2)cc1` yielded an RP-LC retention time of 599 s.
Work on `Cc1cnc(C(=O)NC2C[C@H]3CC[C@@H](C2)N3C(=O)c2cc(C)n(C)n2)cn1` (some centres undefined) yielded an RP-LC retention time of 614 s.
In the case of `Cc1cc(=O)n(CC(=O)Nc2ccc(Br)cc2)c(N2CCC(C)CC2)n1`, the RP-LC retention time is reported as 793 s.
`CCCn1c(=O)sc2cc(S(=O)(=O)N3CCC(C(=O)Nc4cc(C)cc(C)c4)CC3)ccc21` showed an RP-LC retention time of 1060 s.
Work on `O=C(O)c1cn(Cc2ccc(F)cc2)c(=O)c2ccccc12` yielded an RP-LC retention time of 806 s.
With `Cc1ccc(-c2ccc(=O)n(C(C)C(=O)O)n2)cc1` (centres undefined) the RP-LC retention time was 684 s.
Work on `CCc1ccc(S(=O)(=O)N2C[C@@H](F)C[C@H]2C(=O)N2CCc3ccccc3C2)cc1` yielded an RP-LC retention time of 998 s.
For `O=C(COc1ccccc1)Nc1nc(-c2ccc(Cl)cc2)cs1`, the RP-LC retention time was 1130 s.
Compound `Cc1ccc(-c2noc(Cc3nnc(-c4ccc(C)cc4)o3)n2)cc1` has an RP-LC retention time of 1120 s.
Work on `COc1ccc(NC(=O)Cn2c(=O)nc(N3CCC(C)CC3)c3ccccc32)cc1OC` yielded an RP-LC retention time of 768 s.
`Oc1ccc(-c2nc3ncccn3c2Nc2cccc(C(F)(F)F)c2)cc1` showed an RP-LC retention time of 764 s.
`CCOC(=O)c1noc2ncnc(N(C)c3cccc(Cl)c3)c12` showed an RP-LC retention time of 965 s.
`CCN1C(=O)c2cc(S(=O)(=O)Nc3cccc(C)c3)ccc2Oc2cccnc21` gave an RP-LC retention time of 1010 s.
Work on `COc1ccc(OC)c(NC(=O)N2CCC3(CC2)N=C(c2ccc(C)c(C)c2)C(=O)N3)c1` yielded an RP-LC retention time of 896 s.
`CCn1cc(-c2ccc(Cl)cc2)cc1C(=O)NCCN(C)C` showed an RP-LC retention time of 702 s.
Work on `O=C(Nc1ccccc1)C1CCN(S(=O)(=O)c2cc(C(=O)N3CCOCC3)cs2)CC1` yielded an RP-LC retention time of 757 s.
For `CCOc1ccc(-c2[nH]ncc2CNS(=O)(=O)c2cccc(C(F)(F)F)c2)cc1`, the RP-LC retention time was 902 s.
For `CCC(=O)NCC12CCC=C1N(C)C(=O)CC2` (centres undefined), the RP-LC retention time was 616 s.
Work on `CC(=O)Oc1ccc(C(=O)NCCc2c[nH]c3ccc(Cl)cc23)cc1` yielded an RP-LC retention time of 853 s.
With `CC(=O)Nc1ccc(C(=O)NC2CCN(c3cc(N4CCCC4)cnn3)C2)cc1` (centres undefined) the RP-LC retention time was 598 s.
In the case of `OC(COc1ccccc1Cl)Cn1c(C2CC2)nc2ccccc21` (centres undefined), the RP-LC retention time is reported as 693 s.
For `COc1ccc(OC)c2sc(N(Cc3ccco3)C(=O)Cc3cccs3)nc12`, the RP-LC retention time was 1050 s.
For `CCOc1ccc(NC(=O)N2CCC3(CC2)NC(=O)c2ccc(F)cc2N3C)cc1`, the RP-LC retention time was 777 s.
`CCCn1ccc2sc(C)c(C(=O)N3CCN(c4ccccn4)CC3)c2c1=O` showed an RP-LC retention time of 593 s.
`COc1ccc(OC)c(NC(=O)Cn2cnc3cc4c(cc32)OCCO4)c1` showed an RP-LC retention time of 641 s.
`CC(C)NC(=O)C1CCc2sc(C(=O)N3CCOCC3)cc2C1` (centres undefined) showed an RP-LC retention time of 596 s.
`CC(C)c1c(C(=O)O)nnn1-c1ccc(F)c(F)c1` showed an RP-LC retention time of 762 s.
In the case of `O=C(c1ccc2[nH]ccc2c1)N1CCN(c2cc(-c3ccc(Cl)cc3)[nH]n2)CC1`, the RP-LC retention time is reported as 798 s.
With `O=C(NC1CCN(c2ccc(F)cc2)C1=O)c1ccccc1C(F)(F)F` (centres undefined) the RP-LC retention time was 823 s.
With `O=C(Nc1cccc(Nc2ncc(Br)c(NCCc3cnc[nH]3)n2)c1)N1CCCC1` the RP-LC retention time was 592 s.
In the case of `O=C(C1=NN(Cc2ccccc2)c2ccc(Cl)cc2S1(=O)=O)N1CCOCC1`, the RP-LC retention time is reported as 824 s.
`CC(NC(=O)c1cn(-c2ncccc2-c2nc(-c3ccccc3)no2)cn1)c1ccccc1` (centres undefined) gave an RP-LC retention time of 966 s.
For `COc1ccccc1C(=O)N1CCC2(C1)C(=O)Nc1ccccc12` (centres undefined), the RP-LC retention time was 672 s.
`Cc1ccc(Cl)cc1N1CCN(C(=O)C2CCN(S(=O)(=O)c3cn(C)cn3)CC2)CC1` gave an RP-LC retention time of 859 s.
In the case of `Cc1ccc(N2C(=O)CN(S(=O)(=O)c3ccccc3)CC2(C)C(=O)NC2CCCC2)cc1C` (centres undefined), the RP-LC retention time is reported as 963 s.
`CCn1nccc1C(=O)N1CCCN(c2nnc3ccccn23)CC1` gave an RP-LC retention time of 879 s.
`Cc1cccc(CNC(=O)c2ccc(CN3CCN(C(C)C)C(=O)C3=O)cc2)c1` gave an RP-LC retention time of 714 s.
Compound `O=S(=O)(NCc1cccs1)c1cc(-c2nnc(-c3ccccc3)o2)ccc1F` has an RP-LC retention time of 1070 s.
For `CCn1c(N2CCCC(C(=O)NCc3ccccc3F)C2)cc(=O)n(C)c1=O` (centres undefined), the RP-LC retention time was 776 s.
`Cc1cc(C)cc(NC(=O)C2CCCN(S(=O)(=O)c3cn(C(C)C)cn3)C2)c1` (centres undefined) showed an RP-LC retention time of 876 s.
With `CCN1c2ccccc2C(=O)NC12CCN(C(=O)c1ccccc1F)CC2` the RP-LC retention time was 749 s.
In the case of `O=C(Nc1cnc(N2CCCCCC2)nc1)c1cc(F)cc(F)c1`, the RP-LC retention time is reported as 1020 s.
`CS(=O)(=O)c1ccccc1C(=O)Nc1c2c(nn1-c1nc3ccccc3s1)CCC2` showed an RP-LC retention time of 1060 s.
`Cc1ccn2c(Nc3ccccc3C)c(-c3ccc(N4CCOCC4)cc3)nc2c1` gave an RP-LC retention time of 746 s.
`O=C(c1ccc(F)c(F)c1)N1CCN(CCn2cccn2)CC1` showed an RP-LC retention time of 543 s.
Work on `O=C(CS(=O)(=O)Cc1ccccc1)Nc1nc(-c2ccccn2)cs1` yielded an RP-LC retention time of 614 s.
For `COc1cc(/C=C(\C)c2ccc3c(c2)OCO3)cc(OC)c1OC`, the RP-LC retention time was 1030 s.
`CC(C(=O)NCCN1CCCC1)n1c2ccccc2c2cnn(C)c(=O)c21` (centres undefined) showed an RP-LC retention time of 607 s.
Work on `COC(=O)c1ccccc1NC(=O)c1ccc(F)cc1` yielded an RP-LC retention time of 1060 s.
`COCCc1nncn1C1CCN(S(=O)(=O)c2ccc(Cl)c(C)c2)CC1` showed an RP-LC retention time of 769 s.
With `COc1ccc(C2(C(=O)N3CCN(S(=O)(=O)c4c(C)nn(C)c4C)CC3)CC2)cc1` the RP-LC retention time was 754 s.
In the case of `Cc1ccc(NC(=O)NCCc2cn(CC(C)C)c3ncccc23)cc1Cl`, the RP-LC retention time is reported as 941 s.
Compound `CC1CCN(S(=O)(=O)c2nn(C)cc2C(=O)O)CC1` has an RP-LC retention time of 707 s.
`COc1cc(NC(=O)NC2CCN(c3cc(C)cc(C)c3)C2=O)cc(OC)c1` (centres undefined) showed an RP-LC retention time of 818 s.
`CC(C)c1c(C(=O)O)nnn1Cc1ccccc1` showed an RP-LC retention time of 720 s.
Compound `CCOc1ccc(NC(=O)Cc2c(C)nn(-c3nc(-c4ccc(Cl)cc4)cs3)c2C)cc1` has an RP-LC retention time of 1260 s.
For `CCNC(=O)c1nc(C(=O)NCc2cc(F)cc(F)c2)cs1`, the RP-LC retention time was 781 s.
`Cc1cc2occ(CN(C)CCN(C)Cc3cn(-c4cccc(C(F)(F)F)c4)c4ccccc34)c(=O)c2cc1C` showed an RP-LC retention time of 1090 s.
In the case of `CC1Oc2ccccc2C=C1/C=C1\Oc2cc(OC(=O)N(C)C)ccc2C1=O` (centres undefined), the RP-LC retention time is reported as 795 s.
Compound `Cc1nc(C(=O)Nc2ccc(Cl)cc2F)c(C)o1` has an RP-LC retention time of 1020 s.
`CC(C)[C@H](NC(=O)CNC(=O)OC(C)(C)C)C(=O)N[C@H](C=O)C(C)C` showed an RP-LC retention time of 749 s.
